# In ChEMBL document CHEMBL5661982 (Mol Cancer Ther, 2012):
# Experiments:
# [1] = biological target: Hepatocyte growth factor receptor (Canis lupus familiaris, UniProt Q75ZY9); experiment: Inhibition of c-Met phosphorylation in HGF-stimulated dog MDCK cells incubated for 1 hr by sandwich ELISA analysis
# [2] = biological target: Hepatocyte growth factor receptor (Mus musculus, UniProt P16056); experiment: Inhibition of c-Met phosphorylation in HGF-stimulated mIMCD3 cells incubated for 1 hr by sandwich ELISA analysis
# Chain of Hepatocyte growth factor receptor (Mus musculus, UniProt P16056) (P16056 whole entry): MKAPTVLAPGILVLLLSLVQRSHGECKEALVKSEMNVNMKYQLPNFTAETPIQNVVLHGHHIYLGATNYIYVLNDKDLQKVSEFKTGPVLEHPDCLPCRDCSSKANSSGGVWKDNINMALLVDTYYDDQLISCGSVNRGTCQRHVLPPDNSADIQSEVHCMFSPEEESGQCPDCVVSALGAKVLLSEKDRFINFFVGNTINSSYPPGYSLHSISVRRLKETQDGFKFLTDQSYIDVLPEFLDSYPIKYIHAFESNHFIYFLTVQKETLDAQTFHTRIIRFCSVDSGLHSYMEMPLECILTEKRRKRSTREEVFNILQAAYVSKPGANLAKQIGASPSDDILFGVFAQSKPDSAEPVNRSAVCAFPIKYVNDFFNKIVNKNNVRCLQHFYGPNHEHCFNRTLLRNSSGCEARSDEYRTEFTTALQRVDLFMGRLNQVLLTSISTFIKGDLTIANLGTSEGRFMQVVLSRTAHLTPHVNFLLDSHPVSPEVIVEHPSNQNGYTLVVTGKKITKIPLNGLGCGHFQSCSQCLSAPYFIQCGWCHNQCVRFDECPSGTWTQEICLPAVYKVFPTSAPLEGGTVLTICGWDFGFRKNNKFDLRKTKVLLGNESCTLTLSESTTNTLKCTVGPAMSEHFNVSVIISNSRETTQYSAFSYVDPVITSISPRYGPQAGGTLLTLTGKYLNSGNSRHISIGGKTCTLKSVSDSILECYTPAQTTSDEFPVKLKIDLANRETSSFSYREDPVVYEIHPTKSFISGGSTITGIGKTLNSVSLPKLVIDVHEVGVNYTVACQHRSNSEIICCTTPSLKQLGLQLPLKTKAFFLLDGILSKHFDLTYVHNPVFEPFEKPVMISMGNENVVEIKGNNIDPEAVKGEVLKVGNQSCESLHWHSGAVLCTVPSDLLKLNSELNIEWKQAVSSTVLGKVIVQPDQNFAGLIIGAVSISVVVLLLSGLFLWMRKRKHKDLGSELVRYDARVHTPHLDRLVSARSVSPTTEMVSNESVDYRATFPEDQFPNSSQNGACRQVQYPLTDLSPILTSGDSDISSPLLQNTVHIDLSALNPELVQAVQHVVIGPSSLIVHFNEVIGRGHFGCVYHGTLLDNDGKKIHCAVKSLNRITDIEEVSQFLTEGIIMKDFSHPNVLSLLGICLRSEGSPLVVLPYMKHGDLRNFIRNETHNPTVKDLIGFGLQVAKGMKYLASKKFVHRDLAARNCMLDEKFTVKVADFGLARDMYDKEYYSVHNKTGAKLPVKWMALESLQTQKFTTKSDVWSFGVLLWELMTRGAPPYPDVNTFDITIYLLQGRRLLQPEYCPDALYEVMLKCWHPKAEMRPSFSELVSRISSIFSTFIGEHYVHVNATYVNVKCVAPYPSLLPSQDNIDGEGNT
# [3] = biological target: Macrophage-stimulating protein receptor (Mus musculus, UniProt Q62190); experiment: Inhibition of Ron expressed in mouse NIH3T3 cells assessed as reduction in MSP-stimulated RON phosphorylation incubated for 1 hr by sandwich ELISA analysis
# [4] = biological target: Tyrosine-protein kinase receptor UFO (Homo sapiens, UniProt P30530); experiment: Inhibition of AXL expressed in HEK293 cells assessed as reduction in Gas6-stimulated AXL phosphorylation incubated for 1 hr by sandwich ELISA analysis
# Chain of Tyrosine-protein kinase receptor UFO (P30530 whole entry): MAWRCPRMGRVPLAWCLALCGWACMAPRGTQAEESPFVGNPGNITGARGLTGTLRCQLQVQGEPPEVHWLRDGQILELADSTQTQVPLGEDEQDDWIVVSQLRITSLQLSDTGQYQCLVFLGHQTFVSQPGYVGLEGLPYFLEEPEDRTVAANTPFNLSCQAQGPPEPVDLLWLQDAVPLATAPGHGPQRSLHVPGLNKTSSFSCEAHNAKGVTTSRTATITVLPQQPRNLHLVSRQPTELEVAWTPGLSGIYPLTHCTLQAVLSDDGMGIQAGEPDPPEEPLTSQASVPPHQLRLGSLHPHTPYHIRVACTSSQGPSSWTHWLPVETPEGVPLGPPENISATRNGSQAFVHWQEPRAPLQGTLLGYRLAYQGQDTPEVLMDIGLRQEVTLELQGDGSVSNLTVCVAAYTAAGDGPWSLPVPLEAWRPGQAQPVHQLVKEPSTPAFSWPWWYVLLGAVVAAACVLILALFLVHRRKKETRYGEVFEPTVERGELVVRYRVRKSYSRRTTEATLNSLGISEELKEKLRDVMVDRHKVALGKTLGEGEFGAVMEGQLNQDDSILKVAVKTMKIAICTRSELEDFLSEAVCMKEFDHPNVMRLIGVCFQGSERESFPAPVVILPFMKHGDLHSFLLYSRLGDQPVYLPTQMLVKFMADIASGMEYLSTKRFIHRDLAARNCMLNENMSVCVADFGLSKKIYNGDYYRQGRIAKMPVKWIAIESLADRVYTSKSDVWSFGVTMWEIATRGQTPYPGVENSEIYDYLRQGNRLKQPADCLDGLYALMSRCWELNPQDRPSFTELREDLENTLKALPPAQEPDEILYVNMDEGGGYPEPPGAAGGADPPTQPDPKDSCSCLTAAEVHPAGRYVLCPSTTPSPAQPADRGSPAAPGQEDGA
# [5] = biological target: Tyrosine-protein kinase Mer (Homo sapiens, UniProt Q12866); experiment: Inhibition of MER expressed in HEK293 cells assessed as reduction in Gas6-stimulated MER phosphorylation incubated for 1 hr by sandwich ELISA analysis
# Insulin receptor = Insulin receptor (Homo sapiens, UniProt P06213); experiment: Inhibition of Insulin receptor expressed in HEK293 cells assessed as reduction insulin-stimulated INSR phosphorylation incubated for 1 hr by sandwich ELISA analysis
# Chain of Insulin receptor (P06213 28-758 limits assumed): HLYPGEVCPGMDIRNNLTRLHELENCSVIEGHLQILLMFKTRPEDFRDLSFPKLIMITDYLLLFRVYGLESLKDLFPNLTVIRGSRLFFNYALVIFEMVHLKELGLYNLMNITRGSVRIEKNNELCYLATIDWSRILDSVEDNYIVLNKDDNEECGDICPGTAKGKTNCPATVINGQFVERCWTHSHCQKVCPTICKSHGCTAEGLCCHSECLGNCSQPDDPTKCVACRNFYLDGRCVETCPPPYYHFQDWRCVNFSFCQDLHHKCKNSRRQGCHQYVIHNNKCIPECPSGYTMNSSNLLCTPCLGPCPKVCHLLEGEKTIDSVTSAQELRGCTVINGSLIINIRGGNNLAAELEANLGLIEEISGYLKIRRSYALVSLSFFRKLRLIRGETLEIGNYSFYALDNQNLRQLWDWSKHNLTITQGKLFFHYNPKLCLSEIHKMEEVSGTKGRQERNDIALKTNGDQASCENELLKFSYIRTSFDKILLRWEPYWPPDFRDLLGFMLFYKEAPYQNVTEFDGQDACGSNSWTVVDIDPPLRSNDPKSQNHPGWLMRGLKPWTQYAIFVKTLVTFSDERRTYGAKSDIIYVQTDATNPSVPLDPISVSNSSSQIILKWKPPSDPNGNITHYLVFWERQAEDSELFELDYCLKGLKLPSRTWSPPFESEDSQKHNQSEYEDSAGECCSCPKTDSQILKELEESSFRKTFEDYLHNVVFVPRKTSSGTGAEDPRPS
# Chain of Insulin receptor (P06213 763-1382 limits assumed): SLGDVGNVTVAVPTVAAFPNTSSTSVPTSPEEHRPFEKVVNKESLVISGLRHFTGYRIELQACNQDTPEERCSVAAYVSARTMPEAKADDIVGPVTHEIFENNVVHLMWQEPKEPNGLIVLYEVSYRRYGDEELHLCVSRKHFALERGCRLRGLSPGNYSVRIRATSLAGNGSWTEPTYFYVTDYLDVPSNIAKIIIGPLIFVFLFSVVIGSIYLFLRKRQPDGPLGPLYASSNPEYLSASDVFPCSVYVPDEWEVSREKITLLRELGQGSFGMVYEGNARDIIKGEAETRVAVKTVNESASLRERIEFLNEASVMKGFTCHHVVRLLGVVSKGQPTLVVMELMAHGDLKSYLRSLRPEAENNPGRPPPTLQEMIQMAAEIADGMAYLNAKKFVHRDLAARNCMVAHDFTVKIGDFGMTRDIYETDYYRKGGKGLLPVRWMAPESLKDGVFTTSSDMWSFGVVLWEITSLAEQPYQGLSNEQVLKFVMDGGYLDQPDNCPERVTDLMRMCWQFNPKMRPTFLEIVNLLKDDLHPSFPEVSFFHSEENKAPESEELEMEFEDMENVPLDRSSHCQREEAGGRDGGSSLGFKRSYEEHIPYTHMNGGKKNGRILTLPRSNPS
# [6] = biological target: Insulin-like growth factor 1 receptor (Mus musculus, UniProt Q60751); experiment: Inhibition of IGF1R expressed in mouse NIH3T3 cells assessed as reduction in IGF-stimulated IGF1R phosphorylation incubated for 1 hr by sandwich ELISA analysis
# Chain of Insulin-like growth factor 1 receptor (Q60751 31-737 limits assumed): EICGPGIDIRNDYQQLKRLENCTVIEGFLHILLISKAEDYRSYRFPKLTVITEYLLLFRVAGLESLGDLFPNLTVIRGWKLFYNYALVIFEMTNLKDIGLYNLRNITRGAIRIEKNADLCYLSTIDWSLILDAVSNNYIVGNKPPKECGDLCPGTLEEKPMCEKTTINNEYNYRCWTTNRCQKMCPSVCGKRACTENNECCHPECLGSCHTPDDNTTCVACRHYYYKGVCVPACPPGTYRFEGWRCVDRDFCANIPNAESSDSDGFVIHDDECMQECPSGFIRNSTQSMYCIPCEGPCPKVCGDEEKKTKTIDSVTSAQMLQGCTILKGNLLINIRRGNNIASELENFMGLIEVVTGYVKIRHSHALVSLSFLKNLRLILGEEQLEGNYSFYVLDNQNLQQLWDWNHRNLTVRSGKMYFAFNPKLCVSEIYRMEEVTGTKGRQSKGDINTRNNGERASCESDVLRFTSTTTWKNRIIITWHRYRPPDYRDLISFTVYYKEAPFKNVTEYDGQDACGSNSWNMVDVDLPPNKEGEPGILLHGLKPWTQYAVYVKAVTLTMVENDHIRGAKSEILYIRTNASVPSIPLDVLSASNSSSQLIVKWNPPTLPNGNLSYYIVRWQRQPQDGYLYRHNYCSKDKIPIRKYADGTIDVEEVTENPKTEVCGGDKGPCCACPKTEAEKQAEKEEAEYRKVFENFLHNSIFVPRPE
# Chain of Insulin-like growth factor 1 receptor (Q60751 742-1373 limits assumed): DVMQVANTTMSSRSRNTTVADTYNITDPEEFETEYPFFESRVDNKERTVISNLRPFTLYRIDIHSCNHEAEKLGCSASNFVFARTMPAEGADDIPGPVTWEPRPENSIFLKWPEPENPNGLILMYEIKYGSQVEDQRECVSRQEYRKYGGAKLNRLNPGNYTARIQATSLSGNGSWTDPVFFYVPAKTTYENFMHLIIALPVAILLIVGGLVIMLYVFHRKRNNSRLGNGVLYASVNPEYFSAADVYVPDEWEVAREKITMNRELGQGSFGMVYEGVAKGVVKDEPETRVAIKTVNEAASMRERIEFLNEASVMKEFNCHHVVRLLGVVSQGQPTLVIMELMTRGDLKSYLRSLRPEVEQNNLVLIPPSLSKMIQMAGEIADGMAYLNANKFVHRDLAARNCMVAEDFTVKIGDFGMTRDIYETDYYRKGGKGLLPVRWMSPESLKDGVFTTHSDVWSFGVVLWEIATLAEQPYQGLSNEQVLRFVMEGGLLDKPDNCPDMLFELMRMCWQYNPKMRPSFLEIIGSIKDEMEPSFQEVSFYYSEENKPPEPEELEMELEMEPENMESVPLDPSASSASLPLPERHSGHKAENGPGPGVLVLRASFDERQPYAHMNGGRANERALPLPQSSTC
# SLC34A2-ROS1 = SLC34A2-ROS1 (Homo sapiens, UniProt P08922); experiment: Inhibition of SLC34A2-Ros phosphorylation in human HCC87 cells incubated for 1 hr by sandwich ELISA analysis
# [7] = Inhibition of human c-Met V1092I mutant expressed in mouse NIH3T3 cells assessed as reduction in HGF-stimulated c-Met phosphorylation incubated for 1 hr by ELISA analysis; settings: NIH3T3, 1 h
# [8] = Inhibition of c-Met R988C mutant phosphorylation in human NCI-H69 cells assessed as reduction in HGF-stimulated c-Met phosphorylation incubated for 1 hr by ELISA analysis; settings: NCI-H69, 1 h
# [9] = Inhibition of c-Met T11010I mutant phosphorylation in human HOP-92 cells assessed as reduction in HGF-stimulated c-Met phosphorylation incubated for 1 hr by ELISA analysis; settings: HOP-92, 1 h
# GTL 16 cell line [10] = experiment: Antiproliferative activity against human GTL 16 cells over expressing c-Met assessed as reduction in cell viability after 48 to 72 hrs by MTT assay
# NCI-H1993 = experiment: Antiproliferative activity against human NCI-H1993 cells over expressing c-Met assessed as reduction in cell viability after 48 to 72 hrs by MTT assay
# COLO 205 = experiment: Antiproliferative activity against human COLO 205 cells over expressing c-Met assessed as reduction in cell viability after 48 to 72 hrs by MTT assay
# HT-29 [11] = experiment: Antiproliferative activity against human HT-29 cells over expressing c-Met assessed as reduction in cell viability after 48 to 72 hrs by MTT assay
# SW-620 = experiment: Antiproliferative activity against human SW620 cells over expressing c-Met assessed as reduction in cell viability after 48 to 72 hrs by MTT assay
# HCT-116 = experiment: Antiproliferative activity against human HCT-116 cells over expressing c-Met assessed as reduction in cell viability after 48 to 72 hrs by MTT assay
# DLD-1 = experiment: Antiproliferative activity against human DLD-1 cells over expressing c-Met assessed as reduction in cell viability after 48 to 72 hrs by MTT assay
# MDA-MB-231 = experiment: Antiproliferative activity against human MDA-MB-231 cells over expressing c-Met assessed as reduction in cell viability after 48 to 72 hrs by MTT assay
# MDA-MB-468 = experiment: Antiproliferative activity against human MDA-MB-468 cells over expressing c-Met assessed as reduction in cell viability after 48 to 72 hrs by MTT assay
# HCC1143 = experiment: Antiproliferative activity against human HCC1143 cells over expressing c-Met assessed as reduction in cell viability after 48 to 72 hrs by MTT assay
# A549 = experiment: Antiproliferative activity against human A549 cells over expressing c-Met assessed as reduction in cell viability after 48 to 72 hrs by MTT assay
# U-87 MG = experiment: Antiproliferative activity against human U-87 MG cells over expressing c-Met assessed as reduction in cell viability after 48 to 72 hrs by MTT assay
# PC-3 = experiment: Antiproliferative activity against human PC-3 cells over expressing c-Met assessed as reduction in cell viability after 48 to 72 hrs by MTT assay
# HT-29 [12] = experiment: Inhibition of cell invasion in HGF-stimulated human HT-29 cells over expressing c-Met incubated for 48 hrs by Matrigel based analysis; settings: HT-29, 48 h
# NCI-H441 [13] = experiment: Inhibition of cell migration in HGF-stimulated human NCI-H441 cells over expressing c-Met incubated for 48 hrs by Matrigel based analysis; settings: NCI-H441, 48 h
# NCI-H441 [14] = experiment: Inhibition of cell invasion in HGF-stimulated human NCI-H441 cells over expressing c-Met incubated for 48 hrs by Matrigel based analysis; settings: NCI-H441, 48 h
# HUVEC [15] = experiment: Antiproliferative activity against HGF-stimulated HUVEC cells assessed as reduction in cell viability after 48 to 72 hrs by MTT assay; settings: Homo sapiens
# HUVEC [16] = experiment: Inhibition of cell invasion in HGF-stimulated HUVEC cells incubated for 48 hrs by Matrigel based analysis; settings: Homo sapiens
# GTL 16 cell line [17] = experiment: Antitumor activity against human GTL 16 cells xenografted in athymic nu/nu mouse assessed as tumor growth inhibition at 1 mg/kg, po administered for 16 days relative to control; settings: GTL 16, po, 384 h, read-out: TGI
# GTL 16 cell line [18] = experiment: Antitumor activity against human GTL 16 cells xenografted in athymic nu/nu mouse assessed as tumor growth inhibition at 3 mg/kg, po administered for 16 days relative to control; settings: GTL 16, po, 384 h, read-out: TGI
# GTL 16 cell line [19] = experiment: Antitumor activity against human GTL 16 cells xenografted in athymic nu/nu mouse assessed as tumor growth inhibition at 10 mg/kg, po administered for 16 days relative to control; settings: GTL 16, po, 384 h, read-out: TGI
# NCI-H292 = experiment: Antitumor activity against human NCI-H292 cells xenografted in athymic nu/nu mouse assessed as tumor growth inhibition at 50 mg/kg/day, po for 31 days relative to control; settings: 744 h, read-out: TGI
compound,measurement,setting,value
OCCn1cc(-c2cnc3nnn(Cc4ccc5ncccc5c4)c3n2)cn1 [PF-04217903],IC50,[1],9.5 nM
same,IC50,[2],6.9 nM
same,IC50,[3],> 10000 nM
same,IC50,[4],> 10000 nM
same,IC50,[5],> 10000 nM
same,IC50,Insulin receptor,> 10000 nM
same,IC50,[6],> 10000 nM
same,IC50,SLC34A2-ROS1,> 10000 nM
same,IC50,[7],16 nM
same,IC50,[8],6.4 nM
same,IC50,[9],6.7 nM
same,IC50,GTL 16 cell line [10],12 nM
same,IC50,NCI-H1993,30 nM
same,IC50,COLO 205,> 10000 nM
same,IC50,HT-29 [11],> 10000 nM
same,IC50,SW-620,> 10000 nM
same,IC50,HCT-116,> 10000 nM
same,IC50,DLD-1,> 10000 nM
same,IC50,MDA-MB-231,> 10000 nM
same,IC50,MDA-MB-468,> 10000 nM
same,IC50,HCC1143,> 10000 nM
same,IC50,A549,> 10000 nM
same,IC50,U-87 MG,> 10000 nM
same,IC50,PC-3,> 10000 nM
same,IC50,HT-29 [12],7 nM
same,IC50,NCI-H441 [13],11 nM
same,IC50,NCI-H441 [14],12.5 nM
same,IC50,HUVEC [15],12.3 nM
same,IC50,HUVEC [16],27 nM
same,inhibition in vivo at 1 mg/kg,GTL 16 cell line [17],64%
same,inhibition in vivo at 3 mg/kg,GTL 16 cell line [18],74%
same,inhibition in vivo at 10 mg/kg,GTL 16 cell line [19],90%
same,inhibition in vivo at 50 mg/kg/day,NCI-H292,39%
